Laboratory results reported in patent publication US7034056B2, “Aryl and biaryl compounds having MCH modulatory activity” (Pharmacopeia Drug Discovery, inc., priority 2001, dated 2006).

Target: T1, hMCHR (MCH receptor) (Homo sapiens, UniProt Q99705)
T1 construct: (or internally produced); host or cells: CHO (Chinese hamster ovary) cells, membrane preparation
Assay: MCH Assay PCOP Protocol ([125I]-MCH SPA binding to hMCHR-CHO membranes)
Details: [125I]-MCH 0.5 nM, hMCHR-CHO membranes; read-out: Activity (ranges of Ki values)
Procedure: A reaction mixture of 10 μg hMCHR-CHO overexpressing membranes (from Receptor Biology, Inc., Beltsville, Md., or internally produced) and 100 μg/well WGA-SPA beads (from Amersham Pharmacia Biotech, Inc., Piscataway, N.J.)/100 μl was prepared in MCHR assay buffer (25 mM HEPES, pH 7.4, 10 mM NaCl, 10 mM MgCl2, 5 mM MnCl2, 0.1% BSA). […] The assay plates were shaken for 5 minutes on a plate shaker, then incubated for 2 hours before cpm/well were determined in a Microbeta Trilux counter (from PerkinElmer Wallac, Inc., Gaithersburg, Md.).

T1 sequence (Q99705 whole entry): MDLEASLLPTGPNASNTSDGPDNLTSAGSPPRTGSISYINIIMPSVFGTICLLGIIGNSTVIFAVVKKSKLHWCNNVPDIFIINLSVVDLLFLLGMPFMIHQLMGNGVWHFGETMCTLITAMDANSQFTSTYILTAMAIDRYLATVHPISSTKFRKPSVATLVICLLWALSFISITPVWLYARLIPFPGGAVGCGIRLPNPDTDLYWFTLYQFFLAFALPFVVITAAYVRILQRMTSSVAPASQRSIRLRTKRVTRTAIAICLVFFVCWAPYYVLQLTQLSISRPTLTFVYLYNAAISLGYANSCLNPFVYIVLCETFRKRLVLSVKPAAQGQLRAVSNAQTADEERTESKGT

| Structure (SMILES) | Ki [nM] |
| --- | --- |
| CN(C)CCCNCCC(CNC(=O)Nc1cc(Cl)cc(Cl)c1)c1ccc(-c2cc(F)cc(F)c2)cc1 (stereo not drawn) [Example 99] | 51 to 500 |
| O=C(NCC(CCNC1CCCC1)c1ccc(-c2c(F)cccc2F)cc1)Nc1cc(Cl)cc(Cl)c1 (stereo not drawn) [Example 100] | 51 to 500 |
| CN(C)CCCNCCC(CNC(=O)Nc1cc(Cl)cc(Cl)c1)c1ccc(-c2ccc(OC(F)(F)F)cc2)cc1 (stereo not drawn) [Example 101] | 51 to 500 |
| CN(C)CCCNCCC(CNC(=O)Nc1cc(Cl)cc(Cl)c1)c1ccc(-c2c(F)cccc2F)cc1 (stereo not drawn) [Example 102] | 501 to 2500 |
| Cc1ccc(C(CCNC2CCCC2)CNC(=O)Nc2cc(Cl)cc(Cl)c2)cc1C (stereo not drawn) [Example 103] | 51 to 500 |
| O=C(NCC(CCNC1CCCC1)c1ccc2c(c1)OCO2)Nc1ccc(Cl)c([N+](=O)[O-])c1 (stereo not drawn) [Example 104] | 51 to 500 |
| CC(CCNC1CCCC1)(CNC(=O)Nc1ccc(Cl)c([N+](=O)[O-])c1)c1ccc(Cl)c(Cl)c1 (stereo not drawn) [Example 105] | 51 to 500 |
| O=C(NCC(CCNC1CCCC1)c1ccc2c(c1)OCO2)Nc1cc(Cl)cc(Cl)c1 (stereo not drawn) [Example 106] | 51 to 500 |
| CC(CCNC1CCCC1)(CNC(=O)Nc1cc(Cl)cc(Cl)c1)c1ccc(Cl)c(Cl)c1 (stereo not drawn) [Example 107] | 51 to 500 |
| O=C(NCC(CCNC1CCCC1)c1ccc(Cl)cc1)Nc1cc(C(F)(F)F)cc(C(F)(F)F)c1 (stereo not drawn) [Example 108] | 51 to 500 |
| Cc1ccc(C(CCNC2CCCC2)CNC(=O)Nc2cc(C(F)(F)F)cc(C(F)(F)F)c2)cc1C (stereo not drawn) [Example 109] | 51 to 500 |
| O=C(NCC(CCNC1CCCC1)c1cccs1)Nc1ccc(Cl)c([N+](=O)[O-])c1 (stereo not drawn) [Example 110] | 51 to 500 |
| CN(C)CCCNCCC(C)(CNC(=O)Nc1cc(Cl)cc(Cl)c1)c1ccc(Cl)c(Cl)c1 (stereo not drawn) [Example 111] | 51 to 500 |
| CN(C)CCCNCCC(CNC(=O)Nc1cc(Cl)cc(Cl)c1)c1ccc(Cl)cc1 (stereo not drawn) [Example 112] | 501 to 2500 |
| CC(CCNC1CCCC1)(CNC(=O)Nc1ccc(F)c([N+](=O)[O-])c1)c1ccc(Cl)c(Cl)c1 (stereo not drawn) [Example 113] | 501 to 2500 |
| CC(CCNC1CCCC1)(CNC(=O)Nc1ccc(F)c(F)c1)c1ccc(Cl)c(Cl)c1 (stereo not drawn) [Example 114] | 501 to 2500 |
| CN(C)CCCNCCC(C)(CNC(=O)Nc1ccc(Cl)c([N+](=O)[O-])c1)c1ccc(Cl)c(Cl)c1 (stereo not drawn) [Example 115] | 501 to 2500 |
| CN(C)CCCNCCC(CNC(=O)Nc1cc(Cl)cc(Cl)c1)c1ccc2c(c1)OCO2 (stereo not drawn) [Example 116] | 501 to 2500 |
| CN(C)CCCNCCC(C)(CNC(=O)Nc1ccc(F)c([N+](=O)[O-])c1)c1ccc(Cl)c(Cl)c1 (stereo not drawn) [Example 117] | 501 to 2500 |
| Cc1ccc(C(CCNCCCN(C)C)CNC(=O)Nc2cc(Cl)cc(Cl)c2)cc1C (stereo not drawn) [Example 118] | 501 to 2500 |
| CN(C)CCCNCCC(C)(CNC(=O)Nc1ccc(F)c(F)c1)c1ccc(Cl)c(Cl)c1 (stereo not drawn) [Example 119] | 501 to 2500 |
| CN(C)CCCNCCC(CNC(=O)Nc1ccc(Cl)c([N+](=O)[O-])c1)c1ccc2c(c1)OCO2 (stereo not drawn) [Example 120] | 501 to 2500 |
| O=C(NCC(CCNC1CCCC1)c1ccc2c(c1)OCO2)Nc1ccc(F)c([N+](=O)[O-])c1 (stereo not drawn) [Example 121] | 501 to 2500 |
| CCOC(=O)N1CCC(NCCC(CNC(=O)Nc2cc(Cl)cc(Cl)c2)c2ccc(Cl)cc2)CC1 (stereo not drawn) [Example 122] | 51 to 500 |

| Structure (SMILES) | Ki [nM] |
| --- | --- |
| CCOC(=O)N1CCC(NCCC(CNC(=O)Nc2cc(Cl)cc(Cl)c2)c2ccc(C)cc2)CC1 (stereo not drawn) [Example 123] | 51 to 500 |
| O=C(NCC(CCNC1CCCC1)c1ccc(Cl)cc1)Nc1ccc(Cl)c(Cl)c1 (stereo not drawn) [Example 124] | 51 to 500 |
| COc1cc(CNCCC(CNC(=O)Nc2ccc(F)c([N+](=O)[O-])c2)c2ccc(Cl)c(Cl)c2)cc(OC)c1OC (stereo not drawn) [Example 125] | 51 to 500 |
| COc1cc(CNCCC(CNC(=O)Nc2ccc(F)c(Cl)c2)c2ccc(Cl)c(Cl)c2)cc(OC)c1OC (stereo not drawn) [Example 126] | 51 to 500 |
| Cc1ccc(C(CCNC2CCCC2)CNC(=O)Nc2ccc(Cl)c(Cl)c2)cc1 (stereo not drawn) [Example 127] | 51 to 500 |
| CCOC(=O)N1CCC(NCCC(CNC(=O)Nc2cccc(C(F)(F)F)c2)c2ccc(Cl)cc2)CC1 (stereo not drawn) [Example 128] | 51 to 500 |
| COc1cc(CNCCC(CNC(=O)Nc2cc(Cl)cc(Cl)c2)c2ccc(Cl)c(Cl)c2)cc(OC)c1OC (stereo not drawn) [Example 129] | 51 to 500 |
| O=C(NCC(CCNC1CCCC1)c1ccc(Cl)c(Cl)c1)Nc1cccc(Cl)c1 (stereo not drawn) [Example 130] | 51 to 500 |
| COc1cc(CNCCC(CNC(=O)Nc2ccc(F)c(F)c2)c2ccc(Cl)c(Cl)c2)cc(OC)c1OC (stereo not drawn) [Example 131] | 51 to 500 |
| COc1cc(CNCCC(CNC(=O)Nc2cccc(C(F)(F)F)c2)c2ccc(Cl)c(Cl)c2)cc(OC)c1OC (stereo not drawn) [Example 132] | 51 to 500 |
| O=C(NCC(CCNC1CCCC1)c1ccc(Cl)c(Cl)c1)Nc1cccc(Br)c1 (stereo not drawn) [Example 133] | 51 to 500 |
| O=C(NCC(CCNC1CCCC1)c1ccc(Cl)c(Cl)c1)Nc1ccc(F)c(Cl)c1 (stereo not drawn) [Example 134] | 51 to 500 |
| O=C(NCC(CCNC1CCNC1)c1ccc(Cl)c(Cl)c1)Nc1ccc(Cl)c(Cl)c1 (stereo not drawn) [Example 135] | 51 to 500 |
| O=C(NCC(CCNC1CCCC1)c1ccc(Cl)cc1)Nc1cccc(Br)c1 (stereo not drawn) [Example 136] | 51 to 500 |
| CCOC(=O)N1CCC(NCCC(CNC(=O)Nc2cccc(C(F)(F)F)c2)c2ccc(C)cc2)CC1 (stereo not drawn) [Example 137] | 51 to 500 |
| O=C(NCC(CCNCCc1ccc(O)cc1)c1ccc(Cl)c(Cl)c1)Nc1ccc(F)c([N+](=O)[O-])c1 (stereo not drawn) [Example 138] | 51 to 500 |
| O=C(NCC(CCNC1CCCC1)c1ccc(Cl)cc1)Nc1cccc(Cl)c1 (stereo not drawn) [Example 139] | 501 to 2500 |
| O=C(NCC(CCNCCc1ccc(O)cc1)c1ccc(Cl)c(Cl)c1)Nc1ccc(F)c(F)c1 (stereo not drawn) [Example 140] | 501 to 2500 |
| O=C(NCC(CCNC1CCCC1)c1ccc(Cl)c(Cl)c1)Nc1ccc(F)c([N+](=O)[O-])c1 (stereo not drawn) [Example 141] | 501 to 2500 |
| Cc1ccc(C(CCNC2CCCC2)CNC(=O)Nc2cccc(Cl)c2)cc1 (stereo not drawn) [Example 142] | 501 to 2500 |
| Cc1ccc(C(CCNC2CCCC2)CNC(=O)Nc2cccc(Br)c2)cc1 (stereo not drawn) [Example 143] | 501 to 2500 |
| O=C(NCC(CCNC1CCCC1)c1ccc(Cl)c(Cl)c1)Nc1ccc(F)c(F)c1 (stereo not drawn) [Example 144] | 501 to 2500 |
| Cc1ccc(C(CCNC2CCNC2)CNC(=O)Nc2ccc(Cl)c(Cl)c2)cc1 (stereo not drawn) [Example 145] | 501 to 2500 |
| CCCOC(=O)N1CCN(CCC(CNC(=O)Nc2cc(C(F)(F)F)cc(C(F)(F)F)c2)c2ccc(Cl)c(Cl)c2)CC1 (stereo not drawn) [Example 146] | 51 to 500 |

| Structure (SMILES) | Ki [nM] |
| --- | --- |
| O=C(NCC(CCNC1CCCC1)c1cccc(-c2ccc3c(c2)OCO3)c1)Nc1cc(Cl)cc(Cl)c1 (stereo not drawn) [Example 147] | 51 to 500 |
| O=C(NCC(CCNC1CCCC1)c1cccc(-c2cccc([N+](=O)[O-])c2)c1)Nc1cc(Cl)cc(Cl)c1 (stereo not drawn) [Example 148] | 51 to 500 |
| N#Cc1cccc(-c2cccc(C(CCNC3CCCC3)CNC(=O)Nc3cc(Cl)cc(Cl)c3)c2)c1 (stereo not drawn) [Example 149] | 51 to 500 |
| CN(C)CCCNCCC(CNC(=O)Nc1cc(Cl)cc(Cl)c1)c1cccc(-c2ccc(C(F)(F)F)cc2)c1 (stereo not drawn) [Example 150] | 51 to 500 |
| CN(C)CCCNCCC(CNC(=O)Nc1cc(Cl)cc(Cl)c1)c1cccc(-c2ccc(Cl)cc2)c1 (stereo not drawn) [Example 151] | 51 to 500 |
| O=C(NCC(CCNC1CCCC1)c1cccc(-c2ccc(Cl)cc2)c1)Nc1cc(Cl)cc(Cl)c1 (stereo not drawn) [Example 152] | 51 to 500 |
| COc1cc(-c2cccc(C(CCNC3CCCC3)CNC(=O)Nc3cc(Cl)cc(Cl)c3)c2)cc(OC)c1OC (stereo not drawn) [Example 153] | 51 to 500 |
| COc1ccc(-c2cccc(C(CCNCCCN(C)C)CNC(=O)Nc3cc(Cl)cc(Cl)c3)c2)cc1 (stereo not drawn) [Example 154] | 51 to 500 |
| O=C(NCC(CCNC1CCCC1)c1cccc(-c2ccc(F)cc2)c1)Nc1cc(Cl)cc(Cl)c1 (stereo not drawn) [Example 155] | 51 to 500 |
| O=C(NCC(CCNC1CCCC1)c1cccc(-c2cccc(F)c2)c1)Nc1cc(Cl)cc(Cl)c1 (stereo not drawn) [Example 156] | 51 to 500 |
| O=C(NCC(CCNC1CCCC1)c1cccc(-c2ccc(Cl)c(Cl)c2)c1)Nc1cc(Cl)cc(Cl)c1 (stereo not drawn) [Example 157] | 51 to 500 |
| O=C(NCC(CCNC1CCCC1)c1cccc(-c2cccc(Cl)c2)c1)Nc1cc(Cl)cc(Cl)c1 (stereo not drawn) [Example 158] | 51 to 500 |
| O=C(NCC(CCNC1CCCC1)c1cccc(-c2ccc(F)c(Cl)c2)c1)Nc1cc(Cl)cc(Cl)c1 (stereo not drawn) [Example 159] | 51 to 500 |
| Cc1ccc(C(CCNC2CCCC2)CN2CCN(c3cc(Cl)cc(Cl)c3)C2=O)cc1 (stereo not drawn) [Example 160] | 51 to 500 |
| Cc1ccc(-c2cccc(C(CCNC3CCCC3)CNC(=O)Nc3cc(Cl)cc(Cl)c3)c2)cc1 (stereo not drawn) [Example 161] | 501 to 2500 |
| Cc1ccc(-c2cccc(C(CCNCCCN(C)C)CNC(=O)Nc3cc(Cl)cc(Cl)c3)c2)cc1 (stereo not drawn) [Example 162] | 501 to 2500 |
| CN(C)CCCNCCC(CNC(=O)Nc1cc(Cl)cc(Cl)c1)c1cccc(-c2ccc3c(c2)OCO3)c1 (stereo not drawn) [Example 163] | 501 to 2500 |
| COc1ccccc1-c1cccc(C(CCNC2CCCC2)CNC(=O)Nc2cc(Cl)cc(Cl)c2)c1 (stereo not drawn) [Example 164] | 501 to 2500 |
| CN(C)CCCNCCC(CNC(=O)Nc1cc(Cl)cc(Cl)c1)c1cccc(-c2ccc(F)cc2)c1 (stereo not drawn) [Example 165] | 501 to 2500 |
| O=C(NCC(CCNC1CCCC1)c1cccc(-c2ccccc2Cl)c1)Nc1cc(Cl)cc(Cl)c1 (stereo not drawn) [Example 166] | 501 to 2500 |
| CN(C)CCCNCCC(CNC(=O)Nc1cc(Cl)cc(Cl)c1)c1cccc(-c2ccc(Cl)c(Cl)c2)c1 (stereo not drawn) [Example 167] | 501 to 2500 |
| CC(=O)Nc1cccc(-c2cccc(C(CCNCCCN(C)C)CNC(=O)Nc3cc(Cl)cc(Cl)c3)c2)c1 (stereo not drawn) [Example 168] | 501 to 2500 |
| CN(C)CCCNCCC(CNC(=O)Nc1cc(Cl)cc(Cl)c1)c1cccc(-c2cccc(C#N)c2)c1 (stereo not drawn) [Example 169] | 501 to 2500 |
| CN(C)CCCNCCC(CNC(=O)Nc1cc(Cl)cc(Cl)c1)c1cccc(-c2ccc(F)c(Cl)c2)c1 (stereo not drawn) [Example 170] | 501 to 2500 |
